The text below walks through data of ChEMBL document CHEMBL1128318, “Synthesis of novel 2,4-diaminopyrrolo-[2,3-d]pyrimidines with antioxidant, neuroprotective, and antiasthma activity” (J Med Chem, 1995).

Data set [1] in a line: Oral bioavailability in rat (Sprague-Dawley) (male). The class given is ADME, organism-based. As to conditions: in vivo.
Data set [2] can be described thus: The compound was tested for systemic clearance pharmacokinetic parameter in the male Sprague-Dawley rat. The class given is ADME, organism-based. Particulars: in vivo.
Data set [3] in a line: The compound was tested for steady state volume of distribution pharmacokinetic parameter in the male Sprague-Dawley rat. The class given is ADME, organism-based. Particulars: in vivo.
The nature of data set [4]: The compound was tested for terminal half-life pharmacokinetic parameter in the male Sprague-Dawley rat. It counts as ADME, organism-based. Particulars: in vivo.
Data set [5] can be described thus: The compound was tested for Cmax value pharmacokinetic parameter in the male Sprague-Dawley rat. As to conditions: in vivo. It counts as ADME, organism-based.
The nature of data set [6]: The compound was tested for cytoprotective effect against the human astroglial cells. It counts as functional, cell-based.
The species named for data set [7] is Mus musculus. Put plainly: The compound was tested for spinal neuroprotection in mouse. It counts as functional, organism-based.
The test system of data set [8] is Mus musculus. Nature of the data set: The compound was tested for inhibition of lung eosinophilia in mouse at 10 mg/kg/day, po. It counts as functional.
For data set [9], the system named is Mus musculus. Put plainly: The compound was tested for inhibition of lung eosinophilia in mouse at 3 mg/kg/day, po. The class given is functional.
Data set [10] concerns Mus musculus. Put plainly: The compound was tested for inhibition of lung eosinophilia in mouse at 30 mg/kg/day, po. It counts as functional.
The species named for data set [11] is Mus musculus. Nature of the data set: The compound was evaluated for increase in neurological status at 1 hr post head injury using a simple grip test in mouse. It counts as functional.
Data set [12] is filed under the species Rattus norvegicus. Put plainly: The compound was tested for inhibition of [Fe2+]-induced MDA formation in rat brain homogenate. The class given is functional.
The test system of data set [13] is Rattus norvegicus. Nature of the data set: The compound was tested for inhibition of lung eosinophilia in rat at 30 mg/kg/day, po. The class given is functional.
The subject of data set [14] is Rattus norvegicus. Put plainly: The compound was tested for inhibition of lung eosinophilia in rat at 3mg/kg/day, po. The class given is functional.
Data set [15] relates to Rattus norvegicus. Put plainly: The compound was tested for inhibition of lung eosinophilia in rat at 10 mg/kg/day, po. It counts as functional.
A short description of data set [16]: The compound was tested for tmax value pharmacokinetic parameter in the male Sprague-Dawley rat. It counts as ADME, organism-based. Particulars: in vivo.
Data set [17] concerns Rattus norvegicus. Put plainly: The compound was tested for inhibition of lung eosinophilia in rat at 30mg/kg/day, po. It counts as functional.
Data set [18] deals with Rattus norvegicus. Nature of the data set: The compound was tested for inhibition of lung eosinophilia in rat at 3 mg/kg/day, po. The class given is functional.

The structures appear in SMILES notation.

In turn, `Cc1cc2c(N3CCCC3)nc(N3CCCC3)nc2n1C` returned a bioavailability in [1] of 84.6%. The same compound had a clearance in data set [2] of 8.83 mL/min/kg. The compound also displayed a Vd in data set [3] of 39.7 L/kg. The compound further had a half-life in data set [4] of 10.9 h. The peak level in [5] (Cmax) was 5710 ng/mL. In addition, a half-maximal effect in [6] (EC50) was put at 200 nM. Also, the IC50 in data set [7] came out at 7000 nM; in [12], 1000 nM. The inhibition in vivo at 10 mg/kg/day in [8] turned out to be 0%; in data set [15], 27%. The inhibition in vivo at 3 mg/kg/day in [9] and in [14] was 0% in each case. For the same compound, the inhibition in vivo at 30 mg/kg/day was 0% in [10] and 28% in data set [13]. Moreover, the Score in [11] was determined as 100%. Moreover, the time of peak concentration (Tmax) in data set [16] amounted to 4 h.
As to `Cn1c(-c2ccc(O)cc2)cc2c(N3CCCC3)nc(N3CCCC3)nc21`, the bioavailability in [1] came out at 31.4%. Besides, in data set [2], the clearance is 38.8 mL/min/kg. In [3], the distribution volume (Vd) was found to be 66.2 L/kg. The same compound gave a half-life in data set [4] of 6.1 h. In addition, the Cmax in data set [5] is 720 ng/mL. This compound also showed an EC50 in data set [6] of 200 nM. The values for the 50% inhibitory concentration (IC50) in [7] and in data set [12] were 130 nM and 1000 nM, respectively. In data set [11], this compound showed a Score of 138%. In addition, in data set [16], the Tmax was 8 h.
The compound `Cn1c(-c2ccccc2)cc2c(N3CCCC3)nc(N3CCCC3)nc21` came in with a bioavailability in data set [1] of 55.9%. Also, in data set [2], the clearance was 23.7 mL/min/kg. The compound further yielded a Vd in data set [3] of 44 L/kg. In data set [4], the half-life is 22.1 h. This compound showed a Cmax in data set [5] of 1420 ng/mL. In data set [6], this compound showed an EC50 of 900 nM. In addition, the IC50 in data set [7] stood at 1300 nM; in data set [12], 5000 nM. For the same compound, in [11], the Score was determined as 104%. In addition, in data set [16], the Tmax amounted to 4 h.
In the case of `Cn1c2c(c3c(N4CCCC4)nc(N4CCCC4)nc31)CCCC2`, the bioavailability in [1] amounted to 70.2%. Moreover, in [2], the clearance is 1.67 mL/min/kg. Moreover, the Vd in [3] was found to be 1.09 L/kg. The compound further showed a half-life in [4] of 8.9 h. In data set [5], this compound displayed a Cmax of 40300 ng/mL. The compound also displayed an EC50 in data set [6] of 200 nM. Besides, the concentration for half-maximal inhibition (IC50) in data set [7] worked out at 340 nM; in data set [12], 2000 nM. In data set [8], the inhibition in vivo at 10 mg/kg/day was 31%. The inhibition in vivo at 3 mg/kg/day in [9] amounted to 0%; in data set [18], 72%. In addition, the values for the inhibition in vivo at 30 mg/kg/day in data set [10] and in data set [17] were 41% and 47%, respectively. Moreover, the Score in data set [11] is on record as 276%. Further, in [16], the Tmax was 2 h.
Take `c1ccc2c(c1)c1c(N3CCCC3)nc(N3CCCC3)nc1n2CCN1CCOCC1`: the bioavailability in data set [1] came to 69.9%. This compound also showed a clearance in [2] of 2 mL/min/kg. Also, in [3], the distribution volume (Vd) turned out to be 1.92 L/kg. Moreover, in [4], the half-life is 15.7 h. The maximum concentration (Cmax) in data set [5] worked out at 14700 ng/mL. Besides, a half-maximal response in [6] (EC50) required 3000 nM. Further, the IC50 in data set [7] turned out to be 10600 nM. For the same compound, the inhibition in vivo at 10 mg/kg/day was 62% in [8] and 87% in data set [15]. Moreover, the inhibition in vivo at 3 mg/kg/day in data set [9] is 53%. Also, the inhibition in vivo at 30 mg/kg/day in [10] stood at 71%; in [17], 85%. Besides, the time to peak (Tmax) in [16] was 2 h.
`COc1ccc(-c2cc3c(N4CCCC4)nc(N4CCCC4)nc3n2C)cc1`: the bioavailability in data set [1] amounted to 59.8%. The same compound showed a clearance in data set [2] of 20.7 mL/min/kg. In [3], this compound showed a Vd of 42.8 L/kg. Also, the half-life in [4] was 24.3 h. Moreover, the peak level in data set [5] (Cmax) was 600 ng/mL. This compound also had a concentration for a half-maximal effect (EC50) in [6] of 400 nM. The concentration for half-maximal inhibition (IC50) in [7] turned out to be 3400 nM; in data set [12], 1000 nM. For the same compound, in data set [11], the Score stood at 73%. In addition, the Tmax in data set [16] came out at 4 h.
`C1CCc2c(c3c(N4CCCC4)nc(N4CCCC4)nc3n2CCN2CCOCC2)C1` yielded a bioavailability in data set [1] of 78.3%. In [2], this compound showed a clearance of 0.967 mL/min/kg. Also, the distribution volume (Vd) in data set [3] came out at 0.94 L/kg. The half-life in data set [4] is 11.2 h. Besides, the peak level in data set [5] (Cmax) was 19400 ng/mL. The same compound yielded a half-maximal effective concentration (EC50) in [6] of 300 nM. The compound further returned an IC50 in data set [7] of 1100 nM. Also, the inhibition in vivo at 10 mg/kg/day came to 56% in data set [8] and 30% in data set [15]. For the same compound, the inhibition in vivo at 3 mg/kg/day came to 37% in [9] and 13% in data set [18]. In addition, the inhibition in vivo at 30 mg/kg/day in [10] worked out at 72%; in data set [17], 62%. Further, the Score in data set [11] came to 163%. Further, the Tmax in data set [16] was determined as 2 h.

As usually defined, the bioavailability is the share of a dose that reaches the circulation, judged against a reference dose that is usually intravenous. What is called clearance is a measure of how efficiently the substance is removed, as volume per time. Broadly, the Vd is the apparent volume that relates the amount in the body to the concentration in plasma or blood. Low values mean confinement near the circulation, high ones extensive tissue distribution. One may read the half-life as how long it takes for the measured level to halve. Usually Cmax stands for the peak of the concentration-time curve. A word on the EC50: it is the midpoint of the concentration-response curve. The low end stands for higher potency in that assay, the high end for lower potency in that assay. As a reminder, the IC50 is the point on the concentration scale where inhibition reaches its midpoint. A low value points to inhibition by little substance. A word on the inhibition in vivo: it is the relative decrease from the control value, in per cent. For orientation: Tmax means the time at which the peak concentration occurs.
